Target: T1, ASCT2 (Rattus norvegicus, UniProt D3ZJ25)
T1 construct: gene Slc1a5
T1 sequence (D3ZJ25 1-555): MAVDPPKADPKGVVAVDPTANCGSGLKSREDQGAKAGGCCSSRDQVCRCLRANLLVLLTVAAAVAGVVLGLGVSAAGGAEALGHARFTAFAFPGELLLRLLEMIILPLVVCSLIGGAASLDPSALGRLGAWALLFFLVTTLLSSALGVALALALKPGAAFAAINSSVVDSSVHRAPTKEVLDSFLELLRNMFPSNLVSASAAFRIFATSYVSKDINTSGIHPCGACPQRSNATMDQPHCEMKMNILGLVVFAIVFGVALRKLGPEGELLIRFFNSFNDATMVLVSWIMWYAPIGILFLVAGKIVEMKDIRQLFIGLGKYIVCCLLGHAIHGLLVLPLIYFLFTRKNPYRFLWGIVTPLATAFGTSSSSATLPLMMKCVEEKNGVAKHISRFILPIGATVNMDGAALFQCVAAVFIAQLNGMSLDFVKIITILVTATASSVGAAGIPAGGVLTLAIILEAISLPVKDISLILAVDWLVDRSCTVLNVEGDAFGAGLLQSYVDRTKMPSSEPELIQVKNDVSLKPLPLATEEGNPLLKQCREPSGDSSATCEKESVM
Assay: whole-cell current recording, inhibition of anion leak current in HEK293 cells expressing rat ASCT2
Assay type: cell-based

IC50: 67 ± 17 µM
Compound: Cc1ccccc1C1(CNC(=O)NC(C(N)=O)c2ccccc2)CC1 (stereo not shown) [compound 10]
